PMC3772838, “Preclinical Development of a Novel Class of CXCR4 Antagonist Impairing Solid Tumors Growth and Metastases” (PLoS ONE, 2013)
Bridges are numbered along the chain shown (N, C = ends). Where no end group is shown, it is not given here.

Columns and labels:
CXCR7 = test: Anti-CXCR7 antibody (clone 11G8) binding in CXCR7 overexpressing cells; parameters: species or system human; conditions: MCF-7 cells; peptides 10 µM, CXCL11 100 nM, 30 min pre-incubation; Figure S3
Method: [The procedure below names another target; the source says it served here with some conditions changed.] (§1) CXCR4 binding was evaluated as previously described. Briefly 5×10^5 CCRF–CEM cells were pre-incubated with 10 µM peptides or AMD3100 in binding buffer (PBS 1× plus 0.2% BSA and 0.1% NaN3) for 30 minutes at 37°C, 5% CO2 and then labeled for 30 minutes with anti-CXCR4 PE-antibody (FAB170P, clone 12G5, R&D Systems, Minneapolis, MN, USA). The cells were analyzed by FACS Canto II cytofluorometer (Becton Dickinson Immunocytometry Systems, Mountain View, CA, USA).
(§2) Fluo-3AM and Pluronic acid were added to each sample to increase Fluo-3AM solubility and improve dye loading into the cells. (TIF) Click here for additional data file.

CXCR4 [1] = test: Mobilization of hematopoietic precursors and neutrophils; format: in vivo; conditions: DBA/2 mouse; for duration of mobilization effect compared to AMD3100: preliminary; for stem cell and neutrophil mobilization relative to AMD3100: preliminary evidence
From the text: The development of CXCR4 inhibitors is of increasing interest with AMD3100 (Plerixafor) having been approved by the FDA for stem cell mobilization, [39]. We evaluated peptides R, I and S for their ability to mobilize hematopoietic precursors in a DBA/2 mouse model in a CXCR4 dependent manner.

CXCR4 [2] = test: Competition with 12G5 anti-CXCR4 antibody binding (flow cytometry); parameters: species or system human; conditions: CCRF-CEM cells, 10 µM peptide, 30 min pre-incubation at 37°C, PE-labelled 12G5, flow cytometry; at least three experiments
Method: as §1
(§3) (A) The amount of peptides or AMD3100 bound was assessed indirectly by flow cytometry using the PE-labelled anti-CXCR4 antibody (clone 12G5). Results are expressed as the percent antibody bound. (B) The Ca^2+ influx assay was performed using CCRF-CEM cells and Fluo-3 AM calcium indicator. CCRF-CEM cells were incubated 30 minutes at 37°C with Fluo-3 AM and 15 minutes with AMD3100 (10 µM)/peptides (10 µM) and then treated with CXCL12. Results are expressed as the percent of Fluo-3 AM fluorescence in presence of CXCL12 alone. Each peptide was tested in at least three different experiments. Double tailed T-Test was used for statistical analyses. Differences were considered significant at P<0.05 compared to control. Control (CTRL).

[3] = test system: K7M2 murine osteosarcoma cells; test: K7M2 osteosarcoma lung metastases model; format: in vivo, Balb/c mice; conditions: cells pre-treated 30 min with 10 µM peptide; 10 mg/kg IP daily for 15 days
Method: All mice were obtained from Harlan (Bar Harbor, ME, USA) and their care was in accord with institutional guidelines. Twenty-five 6-8-week-old female C57BL/6 mice were inoculated into the tail vein with 5×10^5 B16–CXCR4 cells pre-treated for 30 minutes with peptide S (10 µM), peptide R (10 µM), peptide I (10 µM), or AMD3100 (10 µM). Six hours later intraperitoneal (IP) treatment started with AMD3100 (1.25 mg/kg) or each peptide (2 mg/kg) in sterile PBS once a day for 10 days. A week later the mice were sacrificed. The experiment was repeated three times. The lung metastases assay was also conducted with K7M2 murine osteosarcoma cells. Twenty-five 6-8-week-old female Balb/c mice were injected via tail vein with 2.5×10^5 K7M2 cells pre-treated for 30 minutes with AMD3100 (10 µM), peptide S (10 µM), peptide R (10 µM), peptide I (10 µM) and animals were treated IP daily for 15 days with 2.5 mg/kg for AMD3100 group and 10 mg/kg for each peptide groups. A week later the mice were sacrificed. Xenograft tumor growth was evaluated using pEGFP-SN12C cells in exponential growth phase subcutaneously injected into the right flank of twenty-five 6-8-week-old female CD1 nude mice. 2×10^6 SN12C-pEGFP were injected in the right flank of each mouse and treated with AMD3100 (1.25 mg/kg) and peptides (2 mg/kg) for 10 days ip. A week later mice were euthanized and tumor volume evaluated through Leica MacroFluo fluorescence stereomicroscope (Leica microsystem, Houston, TX). The experiment was repeated three times. The Istituto Nazionale per lo Studio e la Cura dei Tumori, Fondazione Giovanni Pascale Independent Etical Comettee approved the study (CEI/600/12).
Figure 4 Peptides R, I and S inhibit murine osteosarcoma lung metastases. (A) Twenty-five 6-8-week-old female Balb/c mice were injected via tail vein with 2.5×10^5 K7M2 cells pre-treated for 30 minutes with AMD3100 (10 µM), peptide R (10 µM), or peptide I (10 µM) or peptide S (10 µM). […]

CXCR4 [4] = test: CXCL12-induced calcium mobilization assay (Fluo-3 AM); format: cell-based, human; conditions: CCRF-CEM cells, 10 µM peptide, percent of fluorescence with CXCL12 alone; at least three experiments
Method: For the calcium efflux studies a 2 mg/mL stock solution of Fluo-3 acetoxymethylester (Invitrogen, Carlsbad, CA) in anhydrous DMSO was used. […] CCRF–CEM cells were resuspended in cell loading buffer (PBS, 1% FCS, 1 mmol/L MgCl2, and 1 mmol/L CaCl2) at 5×10^5 cells/mL. Fluo-3AM and Pluronic acid were added to each sample to increase Fluo-3AM solubility and improve dye loading into the cells. Baseline calcium efflux was established, then chemokines were added as indicated and chemokine-induced calcium efflux was measured.
as §3

CXCR3 = test: Anti-CXCR3 antibody (clone 1C6/CXCR3) binding in CXCR3 overexpressing cells; parameters: species or system human; conditions: COLO205 cells; peptides 10 µM, CXCL11 100 nM, 30 min pre-incubation; Figure S3
Method: [The procedure below names another target; the source says it served here with some conditions changed.] as §1, §2

[5] = test system: PES43 human melanoma cells; test: CXCL12-mediated wound closure assay; format: cell-based; conditions: 6 hours post-wounding
Method: Migration was assayed in 24-well Transwell chambers (Corning Inc., Corning, NY) using inserts with an 8-µm pore membrane. Membranes were precoated with collagen (human collagen type I/III) and fibronectin (20 µg/mL each). […] After 16 h incubation, cells on the upper surface of the filter were removed using a cotton wool swab; migration of cells in migration media alone was compared with migration in media containing CXCL12. The cells were counted in ten different fields (original magnification ×40). The migration index was defined as the ratio between migrating cells in the experimental group and migrated cells in the control group. For the wound closure assay, tested cells were allowed to reach confluence in six-well plates containing serum-depleted growth medium and scratched with pipette tips to make wounds. The wound closure was observed microscopically 6 hours post-wounding (OKO Time Lapse).
Experiments were conducted using PES43 cells. (A) Migration was assayed in 24-well Transwell chambers using inserts with 8-µm pore membrane. […] Migrated cells on the lower surface were fixed, stained with H&E and counted microscopically. The results are expressed as the migration index relative to migration in presence of BSA alone. […] Images were acquired with OKO Time Lapse. […] PES43 cells were serum-starved and incubated with CXCL12 (100 ng/ml) alone or in presence of AMD3100/peptides. Each peptide was tested in at least three different experiments. Double tailed T-Test was used for statistical analyses. Differences were considered significant at P<0.05 compared to control.

Row | Substance | binding to CXCR7 (anti-CXCR7 antibody) (CXCR7) | duration of mobilization effect compared to AMD3100 (CXCR4 [1]) | stem cell and neutrophil mobilization relative to AMD3100 (CXCR4 [1]) | association of the 12G5-CXCR4 antibody to the receptor (CXCR4 [2]) | K7M2 lung metastases [3] | CXCL12-induced calcium efflux (Fluo-3 AM fluorescence) (CXCR4 [4]) | binding to CXCR3 (anti-CXCR3 antibody) (CXCR3) | CXCL12-mediated wound healing [5]
1 | [Cys-Trp-His-Arg-Cys] (CWHRC; disulfide 1-5) [Peptide I, v-MIP-II mimetic disulfide-cyclic peptide] | unaffected | more durable | as potent stem cell and neutrophil mobilization as does AMD3100 | 45 % of control | reduced lung metastases | Minimal effect | unaffected | delayed
2 | Arg-Ala-[Cys-Arg-His-Trp-Cys] (RACRHWC; disulfide 3-7) [Peptide S, CXCL12-mimetic disulfide-cyclic peptide] | unaffected | more durable | as potent stem cell and neutrophil mobilization as does AMD3100 | 17 % of control | reduced lung metastases | 49.75 % of control | unaffected | delayed
3 | Arg-Ala-[Cys-Arg-Phe-Phe-Cys] (RACRFFC; disulfide 3-7) [Peptide R, CXCL12-mimetic disulfide-cyclic peptide] | unaffected | more durable | as potent stem cell and neutrophil mobilization as does AMD3100 | 21 % of control | reduced lung metastases | 51.25 % of control | unaffected | delayed
